Paper PMC11672400, “Synthesis, Spectroscopic Characterization, Structural Analysis, and Evaluation of Anti-Tumor, Antimicrobial, and Antibiofilm Activities of Halogenoaminopyrazoles Derivatives” (Antibiotics, 2024)
In brackets after ≈: the same amount, converted by molar mass. Where two headings read alike, the source gives them in different places.

Key:
[1] = system: NCTC (clone 929) mouse fibroblast cells; assay: MTT cell viability / cytotoxicity on normal fibroblasts; assay type: cell-based; details: Mus musculus, NCTC clone 929; NCTC normal fibroblasts, MTT, 48 h
From the text: (§1) Merck chemicals were utilized.
(§2) Untreated cells were used as control, considered 100% viable cells.

[2] = as above; assay type: cell-based, mouse; details: mouse
From the text: as §1, §2

[3] = system: HEp-2 epithelial tumor cells; assay: MTT cell viability / anti-tumor activity; details: for viability at 3.1 µg/mL / viability at 6.25 µg/mL / viability at 12.5 µg/mL / viability at 25 µg/mL / viability at 50 µg/mL / IC50: Homo sapiens; for viability at 3.1 µg/mL / viability at 6.25 µg/mL / viability at 12.5 µg/mL / viability at 25 µg/mL / viability at 50 µg/mL: read-out: Cell viability on Hep2 cells (%); for IC50: read-out: IC50 µg/mL on HEp-2 Cells 48 h, HEp-2 epithelial tumor cells, MTT, 48 h
[4] = system: Enterococcus faecalis ATCC29212; assay: Qualitative evaluation of antimicrobial activity (inhibition zone, spot on agar); assay type: cell-based; design: key: (+) inhibited bacterial growth; (-) did not inhibit bacterial growth; details: 0.06 g/2 mL DMSO, 5 µL spot
Protocol: (§3) For testing the antimicrobial/antibiofilm activity, the concentration of the studied compounds was identical to 0.06 g/2 mL DMSO. 0.5 Standard McFarland suspension was used, which was inoculated onto Mueller Hinton agar plates, (Remel, Lenexa, KS, USA), 5 µL of each compound was spotted and incubated overnight at 37 °C. Antimicrobial activity was observed as zones of inhibition formed around the spot.

[5] = system: Staphylococcus aureus ATCC25923; assay: as above; assay type: cell-based; design: key: (+) inhibited bacterial growth; (-) did not inhibit bacterial growth; details: 0.06 g/2 mL DMSO, 5 µL spot
Protocol: as §3

[6] = system: Escherichia coli ATCC25922; assay: as above; assay type: cell-based; design: key: (+) inhibited bacterial growth; (-) did not inhibit bacterial growth; details: 0.06 g/2 mL DMSO, 5 µL spot
Protocol: as §3

[7] = system: Pseudomonas aeruginosa ATCC27853; assay: as above; assay type: cell-based; design: key: (+) inhibited bacterial growth; (-) did not inhibit bacterial growth; details: 0.06 g/2 mL DMSO, 5 µL spot
Protocol: as §3

[8] = system: Staphylococcus aureus ATCC25923; assay: Antibiofilm assay (crystal violet), MBIC; assay type: cell-based; details: 24 h, 37 °C; for minimal effective concentration: Staphylococcus aureus, ATCC25923, read-out: Minimum biofilm inhibition concentration (MBIC), Staphylococcus aureus ATCC25923
Protocol: (§4) Microorganisms were grown in 96-well plates filled with nutrient broth along with test substances, followed by incubation at 37 °C for 24 h. Plates were cleaned and rinsed thrice using SPW solution (sterile physiological water). After that, the attached cells were treated with 110 μL of methanol for 5 min, and then the methanol was removed by turning it upside down. […] Once stained, the solution was removed, and the plates were washed with running tap water. […] The antimicrobial/antibiofilm activity of the compounds was evaluated against two antibiotics, commercial formulations of metronidazole and nitrofurantoin.

[9] = system: Pseudomonas aeruginosa ATCC27853; assay: Antibiofilm assay (crystal violet), MBIC; assay type: cell-based; details: 37 °C; for Minimum biofilm inhibition concentration (MBIC), Pseudomonas aeruginosa ATCC27853: 24 h; for minimal effective concentration: Pseudomonas aeruginosa, ATCC27853, 24 h, read-out: Minimum biofilm inhibition concentration (MBIC), Pseudomonas aeruginosa ATCC27853
Protocol: as §4

[10] = system: Enterococcus faecalis ATCC29212; assay: MIC by serial microdilution in liquid medium; assay type: cell-based; details: 24 h, 37 °C; for MIC: Enterococcus faecalis, ATCC29212, read-out: Minimum inhibitory concentration, Enterococcus faecalis ATCC29212
Protocol: (§5) The minimum inhibitory concentrations (MIC) were determined by the serial microdilution method in a liquid medium (Tryptone Soy Broth), on 96-well plates. Serial binary dilutions of the compound stock solution (10 mg/mL in DMSO) were carried out in 90 µL of culture medium and 10 µL of 10^6 CFU/mL (Colony Forming Units) microbial suspension. Each test included a positive control (wells with culture medium and microbial suspension) and a negative control for medium sterility. After incubation at 37 °C for 24 h the plates were visually examined, and optical density was measured at 620 nm. […] The MIC value (µg/mL) for the chemical compound was determined by the concentration in the final well without bacterial growth. All experiments were performed in triplicate.

[11] = system: Staphylococcus aureus ATCC25923; assay: MIC by serial microdilution in liquid medium; assay type: cell-based; details: 24 h, 37 °C; for MIC: Staphylococcus aureus, ATCC25923, read-out: Minimum inhibitory concentration, Staphylococcus aureus ATCC25923
Protocol: as §5

[12] = system: Escherichia coli ATCC25922; assay: MIC by serial microdilution in liquid medium; assay type: cell-based; details: 24 h, 37 °C; for MIC: Escherichia coli, ATCC25922, read-out: Minimum inhibitory concentration, Escherichia coli ATCC25922
Protocol: as §5

[13] = system: Pseudomonas aeruginosa ATCC27853; assay: MIC by serial microdilution in liquid medium; assay type: cell-based; details: 24 h, 37 °C; for MIC: Pseudomonas aeruginosa, ATCC27853, read-out: Minimum inhibitory concentration, Pseudomonas aeruginosa ATCC27853
Protocol: as §5

[14] = system: Escherichia coli ATCC25922; assay: Antibiofilm assay (crystal violet), MBIC; assay type: cell-based; details: 37 °C
Protocol: as §4

[15] = NCTC clone 929 (L929) mouse fibroblast cells
[16] = read-out: Cell viability on NCTC cells (%)

| SMILES | IC50 [1] [mg/L] | viability at 3.1 µg/mL ([3]; HEp-2, 24 h) [%] | viability at 6.25 µg/mL ([3]; HEp-2, 24 h) [%] | viability at 12.5 µg/mL ([3]; HEp-2, 24 h) [%] | viability at 25 µg/mL ([3]; HEp-2, 24 h) [%] | viability at 50 µg/mL ([3]; HEp-2, 24 h) [%] | viability at 3.1 µg/mL ([3]; HEp-2, 48 h) [%] | viability at 6.25 µg/mL ([3]; HEp-2, 48 h) [%] | viability at 12.5 µg/mL ([3]; HEp-2, 48 h) [%] | viability at 25 µg/mL ([3]; HEp-2, 48 h) [%] | viability at 50 µg/mL ([3]; HEp-2, 48 h) [%] | IC50 ([3]; HEp-2, 48 h) [µg/mL] | Qualitative antimicrobial activity, Enterococcus faecalis ATCC29212 [4] | Qualitative antimicrobial activity, Staphylococcus aureus ATCC25923 [5] | Qualitative antimicrobial activity, Escherichia coli ATCC25922 [6] | Qualitative antimicrobial activity, Pseudomonas aeruginosa ATCC27853 [7] | Minimum biofilm inhibition concentration (MBIC), Staphylococcus aureus ATCC25923 [8] [µg/mL] | minimal effective concentration [8] [µg/mL] | Minimum biofilm inhibition concentration (MBIC), Pseudomonas aeruginosa ATCC27853 [9] [µg/mL] | minimal effective concentration [9] [µg/mL] | also measured |
| --- | --- | --- | --- | --- | --- | --- | --- | --- | --- | --- | --- | --- | --- | --- | --- | --- | --- | --- | --- | --- | --- |
| Cc1nn(CNc2ccc(Cl)cc2)c(C)c1[N+](=O)[O-] [4b, N-[(3,5-dimetyl-4-nitro-1H-pyrazol-1-yl)-methyl]-4-chloroaniline] | 36.1 ± 1.23 (≈ 129 µM) | 116 ± 2.48 | 105 ± 2.91 | 100 ± 2.49 | 88.8 ± 1.65 | 65.6 ± 2.78 | 112.6 ± 1.03 | 104 ± 1.08 | 98 ± 1.42 | 79.5 ± 1.49 | 46.8 ± 3.35 | 47.3 ± 3.38 (≈ 169 µM) | + | + | + | + | 460 ± 0.01 | 460 | 460 ± 0.02 | 460 | viability at 24 h, 3.1 µg/mL [2, 15]: 100 ± 1.63%; viability at 48 h, 3.1 µg/mL [2, 15]: 95.08 ± 0.82%; viability at 24 h, 6.25 µg/mL [2, 15]: 101 ± 3.31%; viability at 48 h, 6.25 µg/mL [2, 15]: 93 ± 1.35%; viability at 24 h, 12.5 µg/mL [2, 15]: 98.6 ± 2.62%; viability at 48 h, 12.5 µg/mL [2, 15]: 89.7 ± 3.15%; viability at 24 h, 25 µg/mL [2, 15]: 96.3 ± 2.22%; viability at 48 h, 25 µg/mL [2, 15]: 61.9 ± 1.38%; viability at 24 h, 50 µg/mL [2, 15]: 64.9 ± 0.94%; viability at 48 h, 50 µg/mL [2, 15]: 31.6 ± 1.27%; melting point: 99 to 100 °C; Minimum inhibitory concentration, Enterococcus faecalis ATCC29212 [10]: 460 ± 0.02 mg/L (≈ 1640 µM); MIC [10]: 460 mg/L (≈ 1640 µM); Minimum inhibitory concentration, Staphylococcus aureus ATCC25923 [11]: 460 ± 0.02 mg/L (≈ 1640 µM); MIC [11]: 460 mg/L (≈ 1640 µM); Minimum inhibitory concentration, Escherichia coli ATCC25922 [12]: 460 ± 0.05 mg/L (≈ 1640 µM); MIC [12]: 460 mg/L (≈ 1640 µM); Minimum inhibitory concentration, Pseudomonas aeruginosa ATCC27853 [13]: 460 ± 0.01 mg/L (≈ 1640 µM); MIC [13]: 460 mg/L (≈ 1640 µM) |
| Cc1nn(CN(Cn2nc(C)c([N+](=O)[O-])c2C)c2ccc(Cl)cc2)c(C)c1[N+](=O)[O-] [5b, N,N-bis-[(3,5-dimetyl-4-nitro-1H-pyrazol-1-yl)-methyl]-4-chloroaniline] | 29.8 ± 0.32 (≈ 68.7 µM) | 105 ± 1.52 | 104 ± 2.25 | 102 ± 3.76 | 90.8 ± 2.84 | 65.3 ± 2.02 | 110 ± 1.25 | 94.7 ± 3.8 | 87.1 ± 0.92 | 74.8 ± 0.33 | 54.6 ± 1.17 | 26.6 to 47.3 (≈ 61.3 to 109 µM) | + | + | + | + | 460 ± 0.01 | 460 | 460 ± 0.51 | 460 | viability at 24 h, 3.1 µg/mL [2, 16]: 99.1 ± 3.42%; viability at 48 h, 3.1 µg/mL [2, 16]: 100 ± 2.53%; viability at 24 h, 6.25 µg/mL [2, 16]: 103 ± 3.06%; viability at 48 h, 6.25 µg/mL [2, 16]: 94.9 ± 2.14%; viability at 24 h, 12.5 µg/mL [2, 16]: 98.8 ± 3.47%; viability at 48 h, 12.5 µg/mL [2, 16]: 84 ± 3.77%; viability at 24 h, 25 µg/mL [2, 16]: 70 ± 2.51%; viability at 48 h, 25 µg/mL [2, 16]: 55.2 ± 1.6%; viability at 24 h, 50 µg/mL [2, 16]: 48.6 ± 1.35%; viability at 48 h, 50 µg/mL [2, 16]: 28.1 ± 0.35%; IC50 µg/mL on HEp-2 Cells 48 h ([3]; HEp-2 epithelial tumor cells, MTT, 48 h): >50 µg/mL; Minimum biofilm inhibition concentration (MBIC), Escherichia coli ATCC25922 ([14]; 24 h): 460 ± 0.03 µg/mL; minimal effective concentration ([14]; Escherichia coli, ATCC25922, 24 h, read-out: Minimum biofilm inhibition concentration (MBIC), Escherichia coli ATCC25922): 460 µg/mL; melting point: 132 to 134 °C; MIC [10]: 460 ± 0.54 mg/L (≈ 1060 µM); Minimum inhibitory concentration, Staphylococcus aureus ATCC25923 [11]: 460 ± 0.01 mg/L (≈ 1060 µM); MIC [11]: 460 mg/L (≈ 1060 µM); Minimum inhibitory concentration, Escherichia coli ATCC25922 [12]: 460 ± 0.27 mg/L (≈ 1060 µM); MIC [12]: 460 mg/L (≈ 1060 µM); MIC [13]: 460 ± 0.58 mg/L (≈ 1060 µM) |
| C[C@@H]1CC[C@@]2(OC1)O[C@H]1C[C@H]3[C@@H]4CC=C5C[C@@H](O[C@@H]6O[C@H](CO)[C@@H](O[C@@H]7O[C@@H](C)[C@H](O)[C@@H](O)[C@H]7O)[C@H](O)[C@H]6O[C@@H]6O[C@@H](C)[C@H](O)[C@@H](O)[C@H]6O)CC[C@]5(C)[C@H]4CC[C@]3(C)[C@H]1[C@@H]2C [dioscin, reference compound] | 15.8 ± 2.19 (≈ 18.2 µM) | 97.09 ± 0.43 | 76.7 ± 2.01 | 58.92 ± 0.3 | 13.9 ± 0.18 | 11.5 ± 0.14 | 95.99 ± 0.53 | 62 ± 1.78 | 38 ± 2.09 | 7.49 ± 1.32 | 7.27 ± 1.14 |  |  |  |  |  |  |  |  |  | viability at 24 h, 3.1 µg/mL [2, 16]: 94.3 ± 2.49%; viability at 48 h, 3.1 µg/mL [2, 16]: 94.2 ± 1.66%; viability at 24 h, 6.25 µg/mL [2, 16]: 93 ± 3.24%; viability at 48 h, 6.25 µg/mL [2, 16]: 72.6 ± 1.67%; viability at 24 h, 12.5 µg/mL [2, 16]: 38.7 ± 2.55%; viability at 48 h, 12.5 µg/mL [2, 16]: 37 ± 2.55%; viability at 24 h, 25 µg/mL [2, 16]: 14.9 ± 2.63%; viability at 48 h, 25 µg/mL [2, 16]: 8.55 ± 1.26%; viability at 24 h, 50 µg/mL [2, 16]: 13.7 ± 2.06%; viability at 48 h, 50 µg/mL [2, 16]: 7.14 ± 1.28% |
